In patent US8329644B2, “Lantibiotic-based compounds having antimicrobial activity” (Novacta Biosystems Limited, priority 2007, dated 2012):
In brackets after ≈: the same amount, converted by molar mass. Several values for one entry are separate records, joined by “and”; a condition that tells them apart may be missing. Equal values may be shown once.

Legend:
[1] = Stability in simulated gastric fluid (SGF); assay type: in vitro ADME; conditions: 37° C., analytical HPLC
Method: (§1) Nisin, mersacidin, compound I and compound III were tested for their susceptibility towards enzymatic digestion in the stomach. Nisin, mersacidin and compound III were tested for their susceptibility towards enzymatic digestion in the intestine. The SGF and SIF were based on the standard USP solutions for simulated gastric and simulated intestinal fluids and their activity confirmed against Bovine Serum Albumin (Hilger et al, Clin. Exp. Immunol. 2001, 123, 387-94). The compounds were incubated in SGF or SIF at 37° C. and their concentrations quantified by analytical HPLC (UV detection at 210 nm). The potential degradation of each compound was also monitored qualitatively by measuring in vitro antibacterial activity against Micrococcus luteus.

E. faecium = assay: MIC susceptibility testing, E. faecium; assay type: cell-based
Method: (§2) Susceptibility testing for all aerobic organisms with the exception of Streptococcus pneumoniae was performed by two-fold serial antibiotic dilutions in Mueller-Hinton Broth supplemented with 50 μg/ml Ca^2+ unless otherwise noted. Susceptibility testing for S. pneumoniae was performed by two-fold serial antibiotic dilutions in Brain-Heart-Infusion Broth supplemented with 50 μg/ml Ca^2+ unless otherwise noted. Actively growing broth cultures were diluted to contain […] by adjusting to an OD600 of 0.2-0.3. They were then diluted a further 1:100 in fresh sterile broth. The assays were performed in duplicate in sterile 96-well microtitre plates in a total volume of 200 μl (160 μl broth, 20 μl antimicrobial agent, 20 μl inoculum) in a concentration range from 64 μg/ml to 0.06 μg/ml. […] Clinical isolates of Clostridium difficile were tested in Wilkins-Chalgren Anaerobe Agar under anaerobic conditions. In all cases, vancomycin was used as a reference antibiotic

S. pneumoniae = assay: MIC susceptibility testing, S. pneumoniae (Brain-Heart-Infusion Broth); assay type: cell-based, Streptococcus pneumoniae; conditions: S. pneumoniae R6; Table 2
Method: as §2

Clostridium difficile = assay: MIC, Clostridium difficile in Wilkins-Chalgren Anaerobe Agar; assay type: cell-based; conditions: Table 4
Method: as §2

M. luteus = assay: MIC susceptibility testing, M. luteus; assay type: cell-based; conditions: M. luteus 4698; Table 2
Method: as §2

S. salivarius = assay: MIC susceptibility testing, S. salivarius; assay type: cell-based; conditions: S. salivarius GRL05064; Viridans streptococci; Table 3
Method: as §2

E. faecalis = assay: MIC susceptibility testing, E. faecalis; assay type: cell-based
Method: as §2

Bacteroides fragilis = assay: MIC against intestinal flora organisms, Bacteroides fragilis; assay type: cell-based; conditions: Bacteroides fragilis NCTC 9343; Table 5
[2] = tested on: Bacteroides thetaiotaomicron; assay: MIC against intestinal flora organisms, Bacteroides thetaiotaomicron; assay type: cell-based; conditions: Bacteroides thetaiotaomicron NCTC 10582; Table 5
Bifidobacterium longum = assay: MIC against intestinal flora organisms, Bifidobacterium longum; assay type: cell-based; conditions: Bifidobacterium longum NCTC 11818; Table 5
S. acidominimus = assay: MIC susceptibility testing, S. acidominimus; assay type: cell-based; conditions: S. acidominimus 7862865; Viridans streptococci; Table 3
Method: as §2

[3] = Stability in simulated intestinal fluid (SIF); assay type: in vitro ADME; conditions: 37° C., analytical HPLC
Method: as §1
The rapid degradation of nisin in this medium supports the observation that the clinical utility of nisin for the treatment of colonic infections is very limited unless the compound can be protected from degradative enzymes by means of careful formulation.

S. epidermidis = assay: MIC susceptibility testing, S. epidermidis; assay type: cell-based, Staphylococcus epidermidis
Method: as §2

CCC(C)[C@@H]1NC(=O)[C@H](C(C)C)NC(=O)[C@H]2NC(=O)CNC(=O)[C@@H]3CS[C@@H](C)[C@@H](NC(=O)[C@H]4CSC[C@H](N)C(=O)N[C@@H](CO)C(=O)NCC(=O)N[C@@H](Cc5c[nH]c6ccccc56)C(=O)N[C@@H](C(C)C)C(=O)N4)C(=O)N[C@@H](CC(C)C)C(=O)N[C@@H](C(=O)N[C@@H](C(C)CC)C(=O)N[C@@H](CCC(=O)O)C(=O)N3)[C@H](C)SC[C@H](NC1=O)C(=O)N[C@@H](C)C(=O)N[C@H](C(=O)NCCO)C[S+]([O-])[C@H]2C (some centres unmarked) [Compound III, Actagardine N-[2-ethanolamine]monocarboxamide]
degradation in Simulated Gastric Fluid [1]: did not show appreciable degradation
MIC (E. faecium; E. faecium 19579, Table 2): 16 µg/mL (≈ 8.28 µM)
MIC (E. faecium; E. faecium 19579, Vancomycin sensitive enterococci, Table 3): 16 µg/mL (≈ 8.28 µM)
MIC (E. faecium; E. faecium 7131121, Table 2): 64 µg/mL (≈ 33.1 µM)
MIC (E. faecium; E. faecium 7634337, Vancomycin resistant enterococci, Table 3): >32 µg/mL
MIC (E. faecium; E. faecium 7662769, Vancomycin resistant enterococci, Table 3): >32 µg/mL
MIC (E. faecium; E. faecium 7865229, Vancomycin sensitive enterococci, Table 3): >32 µg/mL
MIC (E. faecium; E. faecium 7865532, Vancomycin resistant enterococci, Table 3): >32 µg/mL
MIC (E. faecium; E. faecium 9709024, Vancomycin resistant enterococci, Table 3): >32 µg/mL
MIC (E. faecium; E. faecium 9710577, Vancomycin resistant enterococci, Table 3): >32 µg/mL
Minimal Inhibitory Concentration (MIC) (E. faecium; E. faecium (VRE) (clinical isolate), Table 5, first isolate): 64 µg/mL
Minimal Inhibitory Concentration (MIC) (E. faecium; E. faecium (VRE) (clinical isolate), Table 5, second isolate): 4 µg/mL
Minimal Inhibitory Concentration (MIC) (E. faecium; E. faecium (VSE) ATCC 19579, Table 5): 16 µg/mL
Minimal Inhibitory Concentration (MIC) (E. faecium; E. faecium (VSE) ATCC 29212, Table 5): 4 µg/mL
MIC (E. faecium; E. faecium GRL05031, Vancomycin resistant enterococci, Table 3): 4 µg/mL (≈ 2.07 µM)
MIC (E. faecium; E. faecium GRL05032, Vancomycin resistant enterococci, Table 3): 4 µg/mL (≈ 2.07 µM)
MIC (E. faecium; E. faecium GRL05033, Vancomycin resistant enterococci, Table 3): 8 µg/mL and 4 µg/mL
MIC (E. faecium; E. faecium GRL05034, Vancomycin resistant enterococci, Table 3): 16 µg/mL (≈ 8.28 µM)
MIC (E. faecium; E. faecium GRL05035, Vancomycin resistant enterococci, Table 3): 16 µg/mL (≈ 8.28 µM)
MIC (S. pneumoniae): 4 µg/mL (≈ 2.07 µM)
MIC (Clostridium difficile; C. difficile 027C): 1 µg/mL (≈ 0.517 µM)
MIC (Clostridium difficile; C. difficile 027SM): 1 µg/mL (≈ 0.517 µM)
MIC (Clostridium difficile; C. difficile 19126): 2 µg/mL (≈ 1.03 µM)
MIC (Clostridium difficile; C. difficile 37779): 2 µg/mL (≈ 1.03 µM)
MIC (Clostridium difficile; C. difficile B32): 2 µg/mL (≈ 1.03 µM)
MIC (Clostridium difficile; C. difficile E4): 1 µg/mL (≈ 0.517 µM)
MIC (Clostridium difficile; C. difficile E16): 2 µg/mL (≈ 1.03 µM)
MIC (Clostridium difficile; C. difficile E101): 2 µg/mL (≈ 1.03 µM)
MIC (Clostridium difficile; C. difficile P24): 2 µg/mL (≈ 1.03 µM)
MIC (Clostridium difficile; C. difficile P49): 1 µg/mL (≈ 0.517 µM)
MIC (Clostridium difficile; C. difficile P59): 1 µg/mL (≈ 0.517 µM)
MIC (Clostridium difficile; C. difficile P62): 1 µg/mL (≈ 0.517 µM)
MIC (M. luteus): 1 µg/mL (≈ 0.517 µM)
MIC (S. salivarius): 1 µg/mL (≈ 0.517 µM)
MIC (E. faecalis; E. faecalis 29212, Table 2): 4 µg/mL (≈ 2.07 µM)
MIC (E. faecalis; E. faecalis 7754422, Vancomycin sensitive enterococci, Table 3): 8 µg/mL (≈ 4.14 µM)
MIC (E. faecalis; E. faecalis GRL05023, Vancomycin sensitive enterococci, Table 3): 8 µg/mL (≈ 4.14 µM)
MIC (E. faecalis; E. faecalis GRL05024, Vancomycin sensitive enterococci, Table 3): 8 µg/mL (≈ 4.14 µM)
MIC (E. faecalis; E. faecalis GRL05026, Vancomycin sensitive enterococci, Table 3): 8 µg/mL (≈ 4.14 µM)
MIC (E. faecalis; E. faecalis GRL05027, Vancomycin sensitive enterococci, Table 3): 8 µg/mL (≈ 4.14 µM)
MIC (E. faecalis; E. faecalis GRL05029, Vancomycin sensitive enterococci, Table 3): 4 µg/mL (≈ 2.07 µM)
MIC (E. faecalis; E. faecalis GRL05030, Vancomycin sensitive enterococci, Table 3): 4 µg/mL (≈ 2.07 µM)
Minimal Inhibitory Concentration (MIC) (Bacteroides fragilis): >64 µg/mL
Minimal Inhibitory Concentration (MIC) [2]: >64 µg/mL
Minimal Inhibitory Concentration (MIC) (Bifidobacterium longum): 32 µg/mL
MIC (S. acidominimus): 4 µg/mL (≈ 2.07 µM)
stability in SIF [3]: essentially stable
MIC (S. epidermidis; S. epidermidis 7753921, Methicillin resistant, Table 3): >32 µg/mL
MIC (S. epidermidis; S. epidermidis 7755298, Methicillin resistant, Table 3): >32 µg/mL
MIC (S. epidermidis; S. epidermidis 7865688, Methicillin resistant, Table 3): >32 µg/mL
MIC (S. epidermidis; S. epidermidis GRL05001, Methicillin sensitive, Table 3): >32 µg/mL
MIC (S. epidermidis; S. epidermidis GRL05002, Methicillin sensitive, Table 3): >32 µg/mL
MIC (S. epidermidis; S. epidermidis GRL05003, Methicillin sensitive, Table 3): 32 µg/mL (≈ 16.6 µM)
MIC (S. epidermidis; S. epidermidis GRL05004, Methicillin sensitive, Table 3): 32 µg/mL (≈ 16.6 µM)
MIC (S. epidermidis; S. epidermidis GRL05005, Methicillin sensitive, Table 3): >32 µg/mL
MIC (S. epidermidis; S. epidermidis GRL05006, Methicillin sensitive, Table 3): >32 µg/mL
MIC (S. epidermidis; S. epidermidis GRL05007, Methicillin sensitive, Table 3): >32 µg/mL
MIC (S. epidermidis; S. epidermidis GRL05008, Methicillin sensitive, Table 3): >32 µg/mL
MIC (S. epidermidis; S. epidermidis GRL05009, Methicillin sensitive, Table 3): >32 µg/mL
MIC (S. epidermidis; S. epidermidis GRL05010, Methicillin sensitive, Table 3): >32 µg/mL
MIC (S. epidermidis; S. epidermidis GRL05011, Methicillin resistant, Table 3): >32 µg/mL
MIC (S. epidermidis; S. epidermidis GRL05013, Methicillin resistant, Table 3): >32 µg/mL
MIC (S. epidermidis; S. epidermidis GRL05014, Methicillin resistant, Table 3): >32 µg/mL
MIC (S. epidermidis; S. epidermidis GRL05015, Methicillin resistant, Table 3): >32 µg/mL
MIC (S. epidermidis; S. epidermidis GRL05017, Methicillin resistant, Table 3): >32 µg/mL
MIC (S. epidermidis; S. epidermidis GRL05019, Methicillin resistant, Table 3): >32 µg/mL
MIC (S. epidermidis; S. epidermidis GRL05020, Methicillin resistant, Table 3): 32 µg/mL (≈ 16.6 µM)
MIC (S. epidermidis; S. epidermis 11047, Table 2): 32 µg/mL (≈ 16.6 µM)
